According to US20060135568A1, “Methods of treating microbial infections in humans and animals” (priority 2002, published 2006):
≈ marks a conversion by molar mass, not a printed value. Entries after “also recorded” stand apart in the source; their conditions may differ. Where two headings read alike, the source gives them in different places.

Key:
[1] = tested on: mycolic acid synthesis in BCG; format: cell-based, M. bovis BCG; conditions: BCG early log phase, 100 μg/ml, 10 minutes post exposure
[2] = tested on: ATP level in BCG cultures; format: cell-based, M. bovis BCG; conditions: for ATP[M] levels, single time-point and time-course experiments: all time-points tested
M. tuberculosis H37Rv = experiment: BACTEC radiometric growth procedure, activity in the presence of ethanol; format: cell-based, Mycobacterium tuberculosis (H37Rv); conditions: for potentiation of growth inhibition by ethanol: 0.05% ethanol, M. tuberculosis; for MIC: Mycobacterium tuberculosis, H37RV, M. tuberculosis H37Rv, BACTEC
[3] = cited from earlier work
M. smegmatis = conditions: concentrations up to 100 μg/ml; previously reported; cited from earlier work
[4] = tested on: atpF (Rv1306) and hsp (Rv0251c); format: cell-based, M. bovis BCG; conditions: BCG treated overnight
BCG = experiment: MIC in BCG; format: cell-based, M. bovis BCG; conditions: Mycobacterium tuberculosis variant bovis BCG
[5] = tested on: b-subunit and hsp homologs; experiment: 2-dimensional protein profiles of OSA-treated M. smegmatis; format: cell-based
Experimental: Protein assays: mycobacteria and cultures. Either DMSO (diluent), OSA. (6.25 and 100 μg/ml), cerulenin (24 μg/ml) or isoniazid (1.0 μg/ml) were added to 20 ml control and treated cultures, respectively. Following additional incubation for 24 hours under the same conditions, 2 ml aliquots of cells were harvested by centrifugation (13,000× g for 30 seconds), the supernatant removed, and the process repeated once using 1×PBS. The cellular contents of each tube were divided into 2 to 3 Eppendorfs (roughly 3 to 5 OD units per tube), and 250 μl of a lysis solution containing 3M urea (Sigma), 0.5% Triton X-100 (Sigma), […] dithiothreitol (DTT) (Gibco BRL, Life Technologies, Gaithersburg, Md.) and […] Pharmalyte (Pharmacia Biotech, Piscataway, N.J.) was added. Subsequently, phenylmethylsulfonyl fluoride (PMSF) (Sigma) (100 μg/ml) and leupeptin (2 μg/ml) (Sigma) were also added. Mixtures containing cells and lysis solution were beadbeaten at maximum speed for 60 seconds in a Biospec Mini-8 beadbeater using 200-300 μm glass beads (Sigma). This process was repeated twice per sample with 30-second intervals on ice between agitations. […] Protein concentration was determined using a standardized colorimetric assay (Coomassie Plus, Pierce, Rockford, Ill.) and BSA standards (Pierce) in a Shimadzu UC-1201 spectrophotometer. Quantitated samples were aliquoted and frozen at −70° C. […]

[6] = tested on: mycolic acid synthesis in BCG; conditions: previously reported; cited from earlier work
[7] = 5 minutes post-exposure, 16× MIC or stated inhibitor concentration

O=C(CC(=O)C(F)(F)F)c1cccs1 [TTFA, thenoyltrifluoroaceton]
decrease in total mycolic acid levels compared to untreated controls [1]: 46% | effect on ATP level versus untreated BCG [2, 7]: only a moderate decrease

[H]/N=C(/N)N[C@H]1[C@H](O)[C@@H](O)[C@H](O[C@@H]2O[C@@H](C)[C@](O)(C=O)[C@H]2O[C@@H]2O[C@@H](CO)[C@H](O)[C@@H](O)[C@@H]2NC)[C@@H](N/C(N)=N\[H])[C@@H]1O [STR, streptomycin]
effect on ATP level versus untreated BCG [2, 7]: no appreciable difference | potentiation of growth inhibition by ethanol (M. tuberculosis H37Rv): No potentiation

CC[C@@H](CO)NCCN[C@@H](CC)CO [EMB, ethambutol]
effect on ATP level versus untreated BCG [2, 7]: no appreciable difference

CO[C@H]1/C=C/O[C@@]2(C)Oc3c(C)c(O)c4c(O)c(c(/C=N/N5CCN(C)CC5)c(O)c4c3C2=O)NC(=O)/C(C)=C\C=C\[C@H](C)[C@H](O)[C@@H](C)[C@@H](O)[C@@H](C)[C@H](OC(C)=O)[C@@H]1C [RIF, rifampin]
effect on ATP level versus untreated BCG [2, 7]: no appreciable difference

C/C=C/C/C=C/CCC(=O)[C@H]1O[C@H]1C(N)=O [cerulenin]
effect on ATP level versus untreated BCG [2, 7]: No appreciable decrease

O=c1oc2ccccc2c(O)c1Cc1c(O)c2ccccc2oc1=O [dicumarol]
effect on ATP level versus untreated BCG [2, 7]: No appreciable decrease

C(=NC1CCCCC1)=NC1CCCCC1 [DCCD, dicyclohexylcarbodiimide]
decrease in total mycolic acid levels compared to untreated controls [1]: 79% | effect on ATP level versus untreated BCG [2, 7]: statistically significant decrease | decrease in ATP[M] level ([2]; BCG, 100 μg/ml, all timepoints (1, 3, 24 hours)): 95% | ATP[M] levels, single time-point and time-course experiments ([2]; BCG): decreased significantly

NNC(=O)c1ccncc1 [INH, isoniazid]
effect on ATP level versus untreated BCG [2, 7]: no appreciable difference

CCCCCCCCS(=O)(=O)CC(N)=O [OSA, n-octanesulfonylacetamide]
limit of solubility [3]: 100 µg/mL | susceptibility of M. smegmatis (M. smegmatis): intrinsically resistant | level of hsp expression by RT-PCR [4]: marked increase | MIC (BCG): 6.25 µg/mL (≈ 26.6 µM) | overexpression of hsp and b-subunit homologs [5]: no proteins consistent with these molecular weights or pI's were overexpressed; also recorded: neither protein was overexpressed | decrease in total mycolic acid levels compared to untreated controls [1]: 43% | mycolic acid levels in BCG [6]: decreased | effect on ATP level versus untreated BCG [2, 7]: significantly decreased | reduction in ATP[M] versus untreated controls ([2]; BCG, 100 μg/ml, 24 hours): 85% | decrease in ATP[M] level versus untreated controls ([2]; BCG, 100 μg/ml, one hour post exposure): 46% | reduction in ATP[M] versus untreated controls ([2]; BCG, 100 μg/ml, three hours): 54% | ATP[M] levels, single time-point and time-course experiments ([2]; BCG): decreased significantly | potentiation of growth inhibition by ethanol (M. tuberculosis H37Rv): potentiated | MIC (M. tuberculosis H37Rv; with 0.05% ethanol): < 1.5 µg/mL | MIC (M. tuberculosis H37Rv; without ethanol, read-out: MIC): 6.25 µg/mL

C=C(C)[C@H]1Cc2c(ccc3c2O[C@@H]2COc4cc(OC)c(OC)cc4[C@@H]2C3=O)O1 [rotenone]
effect on ATP level versus untreated BCG [2]: No appreciable decrease
